Where no end group is shown, it is not given here.
Key:
human red blood cells = details: for MHC, minimal hemolytic concentration: lowest concentration showing 5% or more hemolysis, 1–64 μg/mL, A550, relative to 0.2% Triton X-100, triplicate
Procedure: Briefly, suspensions of human red blood cells (10% v/v in PBS) were treated for 1 h with various concentrations (1–64 μg/mL, two-fold serial dilutions) of peptides, followed by measurement of the absorbance of the supernatant at 550 nm. The relative attenuation was determined as the percentage of hemolysis compared to that of the blood suspension treated with 0.2% Triton X-100. The tests were performed in triplicate, and the average values of three independent measurements were recorded.

[1] = system: two Gram-positive and two Gram-negative bacterial strains; assay: Antimicrobial assay, MICs over the four strains (geometric mean); format: cell-based, B. subtilis, S. aureus, E. coli, S. dysentariae; details: for GM, geometric mean of MICs: geometric mean of the MICs against the four strains
Procedure: (§1) The antimicrobial activity of each peptide was assessed against four strains, including two Gram-positive (Bacillus subtilis ATCC 6633 and Staphylococcus aureus ATCC 6538p) and two Gram-negative bacteria (Escherichia coli ATCC 25922 and Shigella dysentariae ATCC 9752) cultured in Luria-Bertani broth media. Antibacterial susceptibility was determined as the MIC value, which was measured using the standard broth microdilution method as described previously. […] Two conventional antibiotics, ampicillin and kanamycin, were used as controls to confirm antibiotic susceptibility. The tests were performed in triplicate, and the MIC values that were reproduced twice or thrice in the three independent measurements were employed to calculate the GM value.

[2] = system: Staphylococcus aureus ATCC 6538p; assay: microbe, parasite or virus in culture; format: cell-based; details: Gram-positive; broth microdilution, Luria-Bertani broth, 1–64 μg/mL two-fold serial dilutions; triplicate
Procedure: as §1

[3] = system: Shigella dysentariae ATCC 9752; assay: microbe, parasite or virus in culture; format: cell-based; details: Gram-negative; broth microdilution, Luria-Bertani broth, 1–64 μg/mL two-fold serial dilutions; triplicate
Procedure: as §1

[4] = system: Bacillus subtilis ATCC 6633; assay: microbe, parasite or virus in culture; format: cell-based; details: Gram-positive; broth microdilution, Luria-Bertani broth, 1–64 μg/mL two-fold serial dilutions; lowest concentration that completely inhibited growth; triplicate
Procedure: as §1

[5] = system: Escherichia coli ATCC 25922; assay: microbe, parasite or virus in culture; format: cell-based; details: Gram-negative; broth microdilution, Luria-Bertani broth, 1–64 μg/mL two-fold serial dilutions; triplicate
Procedure: as §1

[6] = system: LPS-stimulated J774A.1 cells; assay: Nitric oxide (NO) production, Griess reaction assay; format: cell-based, murine; details: LPS 100 ng/mL 16 h; for NO inhibition at 8 μM: peptide 8 μM; for inhibitory effect against NO production: peptides 8, 4 and 2 μM, pretreatment 5 min, nitrite by Griess
Procedure: NT, non-treated; LPS, lipopolysaccharides. (A) Cytotoxicity was assessed using the MTT assay. […] (B) Anti-inflammatory potential deduced by NO assay.
(§2) The macrophage cells were seeded (3 × 10^4 cells/well) and incubated in 96-well plates for 24 h, followed by pretreatments with the WALK peptides at designated concentrations for 5 min and subsequent stimulation with 100 ng/mL of LPS for 16 h. The nitrite concentration in the culture medium was determined using the Griess reaction assay. Briefly, the culture supernatant (100 μL) was mixed with an equal volume of Griess reagent (1% sulfanilamide, 0.1% N-1-naphthyl ethylenediamine) and incubated for 5 min. The absorbance of the resulting chromophoric azo-derivative molecules was measured at 550 nm using a microplate reader with a fresh culture medium as a blank. The amount of nitrite in each sample was determined using a standard curve generated using a range of dilutions of sodium nitrite solutions.

J774A.1 cells = details: peptides 8, 4 and 2 μM, 16 h
Procedure: (A) Cytotoxicity was assessed using the MTT assay. The cells were treated with lipopolysaccharides (LPS, 100 ng/mL) or peptides (8–2 μM, two-fold serial dilutions) for 16 h, followed by estimating the cell viability as the percentage of surviving cells compared to that of the control cells.
(§4) Macrophage cells seeded in 96-well cell culture plates at a density of 3 × 10^4 cells/well were incubated for 24 h, followed by treatment with LPS or individual WALK peptides and subsequent incubation for 16 h. Cell viability was then assessed by the conventional MTT assay. Briefly, the medium in each well was replaced with 100 μL of RPMI medium containing MTT (500 μg/mL). After 2 h of incubation, the medium was discarded and the insoluble formazan in each well was dissolved in 100 μL of DMSO with shaking. The absorbance of the solution at 550 nm was measured using a spectrophotometric microplate reader to determine the percentage of cell viability relative to that of control cells.

RAW264.7 cells = details: at the concentrations tested, 16 h
Procedure: as §4

[7] = system: iNOS, COX-2 and pro-IL-1β in LPS-stimulated RAW264.7 cells; assay: Immunoblot analysis of pro-inflammatory mediators; format: cell-based, murine; details: peptide pretreatment 5 min, LPS 100 ng/mL 16 h, Western blot
Procedure: (§3) Figure 5 Anti-inflammatory effects of WALK244.04 peptide in Raw264.7 cells. The cells were pretreated with the peptide at indicated concentrations for 5 min, followed by stimulation with LPS (100 ng/mL) to induce inflammatory responses. (A) iNOS, COX-2, and pro-IL-1β expression levels were estimated by Western blot analysis after 16 h of LPS treatment. (B) The mRNA expression of IL-1β, IL-6, and TNF-α was determined by quantitative real-time PCR upon 3 h of stimulation with LPS. […] (C) The phosphorylation of STAT1 and TBK1 was examined by Western blot analysis at different time points after the LPS treatment.
as §3, with “Figure 6” for “Figure 5”, “of WALK243.04” for “of WALK244.04”, “PCR after” for “PCR upon”, “was analyzed” for “was examined”, “after” for “after the”
The cells were lysed using a RIPA buffer (iNtRON) containing protease and phosphatase inhibitor cocktails. The cell lysates were resolved using 10% SDS-PAGE and transferred to nitrocellulose membranes, which were blocked for 1 h at room temperature (approximately 23 °C) using phosphate-buffered saline with 0.01% Tween-20 (PBST, Merck Korea, Seoul, Korea) containing 10% fat-free dried milk. The blocked membranes were then incubated overnight with primary antibodies at 4 °C, followed by further incubation with horseradish peroxidase-conjugated secondary antibodies for 1 h at room temperature. The membranes were developed using the enhanced chemiluminescence (ECL) detection kit (Advansta, San Jose, CA, USA) and visualized using a luminescent image analyzer (Amersham imager 680, Cytiva Korea, Incheon, Korea).

[8] = system: LPS-stimulated RAW264.7 cells; assay: Nitric oxide (NO) production, Griess reaction assay; format: cell-based, murine; details: LPS 100 ng/mL 16 h, compared with omiganan and WALK155.03 (8 μM)
Procedure: as §2

[9] = system: phosphorylation of STAT1 and TBK1 in LPS-stimulated RAW264.7 cells; assay: Immunoblot analysis of TRIF-dependent signaling; format: cell-based, murine; details: Western blot
Procedure: as §3
TRIF-dependent signaling, which is triggered by association with internalized TLR4 upon stimulation by LPS, is known to be mediated by the phosphorylation of the downstream kinase TANK binding kinase-1 (TBK-1) to produce type-I interferons. These interferons induce the expression of downstream target genes via the phosphorylation of the transcription factor signal transducer and the activator of transcription-1 (STAT-1).
The cells were lysed using a RIPA buffer (iNtRON) containing protease and phosphatase inhibitor cocktails. […]

[10] = system: IL-1β, IL-6 and TNF-α mRNA in LPS-stimulated RAW264.7 cells; assay: Quantitative real-time PCR of pro-inflammatory cytokines; format: cell-based, murine; details: LPS 100 ng/mL 3 h, real-time qPCR
Procedure: as §3
Figure 6 Anti-inflammatory effects of WALK243.04 peptide in Raw264.7 cells. […] (B) The mRNA expression of IL-1β, IL-6, and TNF-α was determined by quantitative real-time PCR after 3 h of stimulation with LPS. […] (C) The phosphorylation of STAT1 and TBK1 was analyzed by Western blot analysis at different time points after LPS treatment.
The cells were stimulated with LPS (100 ng/mL) for 3 h in the presence or absence of peptide samples, and the total RNA was extracted using a HiGene™ Total RNA Prep Kit (BIOFACT, Daejeon, Korea). cDNA was synthesized from 500 ng of total RNA using a SuperiorScript III cDNA synthesis kit (Enzynomics, Daejeon, Korea). […] The resulting 2^−ΔΔCt value for each group was used to calculate the relative expression ratio of the detected mRNA.

[11] = human red blood cells 10% v/v in PBS, 1 h

| Substance | MHC, minimal hemolytic concentration (human red blood cells; [11]) | GM, geometric mean of MICs [1] | MIC, S. aureus [2] | MIC, S. dysentariae [3] | MIC, B. subtilis [4] | MIC, E. coli [5] | NO inhibition at 8 μM [6] | inhibitory effect against NO production [6] | cytotoxicity (MTT assay) (J774A.1 cells) | cytotoxicity (MTT assay) (RAW264.7 cells) | percentage hemolysis (human red blood cells; at 64 μg/mL, human red blood cells 10% v/v in PBS, 1 h, relative to 0.2% Triton X-100, average of three measurements) | COX-2 and pro-IL-1β expression [7] | iNOS expression [7] | NO inhibitory activity [8] | hemolytic activity (human red blood cells; at concentrations under 64 μg/mL, human erythrocytes) | TBK-1 phosphorylation ([9]; after 1 h of LPS treatment) | STAT-1 phosphorylation ([9]; after 4 h of LPS treatment) | mRNA expression of IL-1β, IL-6 and TNF-α [10] | MIC values against the strains tested ([1]; against both Gram-positive and Gram-negative bacterial strains, summary) |
| --- | --- | --- | --- | --- | --- | --- | --- | --- | --- | --- | --- | --- | --- | --- | --- | --- | --- | --- | --- |
| KLLKWLKKWL-NH2 [WALK244.05] | 32 µg/mL | 2.4 µg/mL | 2 µg/mL | 4 µg/mL | 2 µg/mL | 2 µg/mL | near-complete NO inhibition | dose-dependent inhibitory effect | no significant cytotoxicity |  |  |  |  |  |  |  |  |  |  |
| KLLKWLLKW-NH2 [WALK243.05] | 64 µg/mL | 3.4 µg/mL | 2 µg/mL | 16 µg/mL | 2 µg/mL | 2 µg/mL |  |  |  | did not demonstrate significant cytotoxicity |  |  |  |  |  |  |  |  |  |
| KWLLKWLKKL-NH2 [WALK244.02] | 32 µg/mL | 2.8 µg/mL | 2 µg/mL | 8 µg/mL | 2 µg/mL | 2 µg/mL |  | dose-dependent inhibitory effect | no significant cytotoxicity |  |  |  |  |  |  |  |  |  |  |
| KWLLKWLLK-NH2 [WALK243.02] | 64 µg/mL | 5.7 µg/mL | 4 µg/mL | 16 µg/mL | 4 µg/mL | 4 µg/mL |  |  |  | did not demonstrate significant cytotoxicity | 6.7% |  |  |  |  |  |  |  |  |
| LKKWLKWLLK-NH2 [WALK244.07] | 32 µg/mL | 2.8 µg/mL | 2 µg/mL | 8 µg/mL | 2 µg/mL | 2 µg/mL |  | dose-dependent inhibitory effect | no significant cytotoxicity |  |  |  |  |  |  |  |  |  |  |
| LKWLKWLLK-NH2 [WALK243.06] | 32 µg/mL | 2.8 µg/mL | 2 µg/mL | 8 µg/mL | 2 µg/mL | 2 µg/mL |  |  |  | did not demonstrate significant cytotoxicity |  |  |  |  |  |  |  |  |  |
| LLKWLKKWL-NH2 [WALK243.04] | 64 µg/mL | 4.0 µg/mL | 4 µg/mL | 4 µg/mL | 4 µg/mL | 4 µg/mL |  |  |  | did not demonstrate significant cytotoxicity |  | less potent or weaker than those of WALK244.04 | less potent or weaker than those of WALK244.04 | superior NO inhibition compared to other positive controls |  |  |  |  |  |
| LLKWLKKWLK-NH2 [WALK244.04] | 64 µg/mL | 4.8 µg/mL | 4 µg/mL | 8 µg/mL | 4 µg/mL | 4 µg/mL | near-complete NO inhibition | dose-dependent inhibitory effect | no significant cytotoxicity |  |  | downregulation | substantial downregulation | most potent NO inhibitory activity | no significant hemolytic activity | attenuated | strong inhibition | effectively suppressed | approximately 4 μg/mL |
